Numbering of substitutions follows the chain as printed. Calls of active or inactive are those of the source.
Legend:
[1] = tested on: T1, Adenosine receptor A3 (Homo sapiens), P0DMS8 [I268A]
T1 sequence (whole entry): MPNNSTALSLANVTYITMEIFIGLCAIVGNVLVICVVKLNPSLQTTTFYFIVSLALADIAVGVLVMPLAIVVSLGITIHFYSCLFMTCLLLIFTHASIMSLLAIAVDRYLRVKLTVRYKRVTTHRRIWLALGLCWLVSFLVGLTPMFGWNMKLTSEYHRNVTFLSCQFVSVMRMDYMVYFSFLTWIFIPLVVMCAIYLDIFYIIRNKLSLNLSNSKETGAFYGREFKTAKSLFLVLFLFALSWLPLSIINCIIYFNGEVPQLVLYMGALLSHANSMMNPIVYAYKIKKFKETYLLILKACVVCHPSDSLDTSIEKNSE

[2] = tested on: T2, Adenosine receptor A3 (Homo sapiens), P0DMS8 [N250A]
T2 sequence (whole entry): T1 sequence (whole entry) with N250A, A268I

[3] = tested on: T3, Adenosine receptor A3 (Homo sapiens), P0DMS8 [F168A]
T3 sequence (whole entry): T1 sequence (whole entry) with F168A, A268I

[4] = tested on: T4, Adenosine receptor A3 (Homo sapiens), P0DMS8 [L246A]
T4 sequence (whole entry): T1 sequence (whole entry) with L246A, A268I

[5] = tested on: T5, Adenosine receptor A3 (Homo sapiens), P0DMS8 [H272A]
T5 sequence (whole entry): T1 sequence (whole entry) with A268I, H272A

[6] = tested on: T6, Adenosine receptor A3 (Homo sapiens), P0DMS8 [S271A]
T6 sequence (whole entry): T1 sequence (whole entry) with A268I, S271A

Measured: pIC50

CNC(=O)[C@H]1O[C@@H](n2cnc3c(NCc4cccc(I)c4)ncnc32)[C@H](O)[C@@H]1O
inactive: [1] | [2] | Homo sapiens | [3] | [4] | [5] | [6]

CCNC(=O)[C@H]1O[C@@H](n2cnc3c(N)ncnc32)[C@H](O)[C@@H]1O
inactive: [1] | [2] | Homo sapiens | [3] | [4] | [5] | [6]

From ChEMBL document CHEMBL4321810, “Structural Characterization of Agonist Binding to an A3 Adenosine Receptor through Biomolecular Simulations and Mutagenesis Experiments” (J Med Chem, 2019)
